Numbered stars: 1 amine (or outer) side, 2 acyl side, 3 side chain; on linkers, the order of the positions; unused ones are H or OH. Bridge positions count the residues as written; N and C are the ends. Square brackets hold non-standard residues; d marks the D form. Peptide text beside a SMILES is read from it. * marks the point of attachment. Ala(piperidin-4-yl) = O=C([C@H](CC1CCN([*:3])CC1)N[*:1])[*:2]; DOTA = O=C(O)CN1CCN(CC(=O)O)CCN(CC(=O)*)CCN(CC(=O)O)CC1; Phe(4-CH2NH2) = NCc1ccc(C[C@H](N)C(=O)O)cc1; 1Nal = N[C@@H](Cc1cccc2ccccc12)C(=O)O; 2Nal = N[C@@H](Cc1ccc2ccccc2c1)C(=O)O; NMetBuAla = CN[C@@H](CC(C)(C)C)C(=O)O; tBuAla = CC(C)(C)C[C@H](N)C(=O)O; αMeD = C[C@](N)(CC(=O)O)C(=O)O; AllylGly = C=CC[C@H](N)C(=O)O; αMeP = C[C@@]1(C(=O)O)CCCN1; NMeS = CN[C@@H](CO)C(=O)O
target: T1, human DLL3 (Homo sapiens, UniProt Q9NYJ7); test: Affinity determination by Surface Plasmon Resonance (SPR), Biacore, 1:1 binding model; conditions: biotinylated human DLL3 on streptavidin chip, 25° C.; NB = nonbinding
T1 construct: biotin (biotinylated)
T1 sequence (Q9NYJ7 27-618): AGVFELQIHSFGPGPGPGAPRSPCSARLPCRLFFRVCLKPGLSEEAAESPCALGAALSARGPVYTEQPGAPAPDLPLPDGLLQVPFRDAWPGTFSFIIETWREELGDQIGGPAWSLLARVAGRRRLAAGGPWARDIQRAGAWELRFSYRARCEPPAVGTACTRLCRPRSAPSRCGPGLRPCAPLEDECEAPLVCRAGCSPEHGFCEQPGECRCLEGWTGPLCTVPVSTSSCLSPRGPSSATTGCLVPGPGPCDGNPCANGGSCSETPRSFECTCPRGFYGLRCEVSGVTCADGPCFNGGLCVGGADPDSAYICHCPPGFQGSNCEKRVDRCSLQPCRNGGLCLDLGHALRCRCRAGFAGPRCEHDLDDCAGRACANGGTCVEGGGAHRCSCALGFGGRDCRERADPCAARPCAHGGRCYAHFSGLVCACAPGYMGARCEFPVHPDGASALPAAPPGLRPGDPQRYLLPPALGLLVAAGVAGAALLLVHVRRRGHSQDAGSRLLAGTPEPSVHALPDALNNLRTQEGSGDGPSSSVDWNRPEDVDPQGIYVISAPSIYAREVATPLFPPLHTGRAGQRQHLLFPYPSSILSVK
Method in brief: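 SPR with biotinylated human DLL3 captured on a streptavidin chip, with a reference surface subtracted. Samples were injected at several concentrations at 100 μL/min in phosphate buffer with 137 mM NaCl, 2.7 mM KCl, 0.05% P20 and 2% DMSO. Kinetic and affinity constants came from a 1:1 binding fit.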

SMILES | Kd [nM] | SPR KD (nM)
CC(=O)N[C@@H](CC1CCNCC1)C(=O)N[C@@H](CO)C(=O)N[C@@H](CC(=O)O)C(=O)N[C@H]1CC=CC[C@@H](C(=O)N2CCC[C@@]2(C)C(=O)N[C@@H](Cc2ccccc2)C(=O)N[C@@H](CC(=O)O)C(N)=O)NC(=O)[C@H](CC(N)=O)NC(=O)[C@H](Cc2ccc3ccccc3c2)NC(=O)[C@H](Cc2ccc(CNC(=O)CN3CCN(CC(=O)O)CCN(CC(=O)O)CCN(CC(=O)O)CC3)cc2)NC(=O)[C@H](CC(C)(C)C)N(C)C(=O)[C@H](Cc2cccc3ccccc23)NC1=O [compound 187, Ac-[3-(4-piperidinyl)-Ala]-S-D-AllyG(4)-(1Nal)-(NMe-Tba)-[PAF(DOTA)]-(2Nal)-N-AllyG(4)-(aMe-P)-F -D-CONH2] (Ac-[Ala(piperidin-4-yl)]SD[AllylGly][1Nal][NMetBuAla][Phe(4-CH2NH2)](DOTA)[2Nal]N[AllylGly][αMeP]FD-NH2; staple 4-10 (inferred)) | > 30 | 
CC(=O)N[C@@H](CO)C(=O)N[C@@H](CC(=O)O)C(=O)N[C@H]1C/C=C/C[C@@H](C(=O)N2CCC[C@@]2(C)C(=O)N[C@@H](Cc2ccccc2)C(=O)N[C@@H](CC(=O)O)C(=O)N[C@H](CCCCNC(=O)CN2CCN(CC(=O)O)CCN(CC(=O)O)CCN(CC(=O)O)CC2)C(N)=O)NC(=O)[C@H](CC(N)=O)NC(=O)[C@H](Cc2ccc3ccccc3c2)NC(=O)[C@H](CC2CCNCC2)NC(=O)[C@H](CC(C)(C)C)N(C)C(=O)[C@H](Cc2cccc3ccccc23)NC1=O [compound 189, Ac-S-D-AllyG(4)-(1Nal)-(NMe-Tba)-[3-(4-piperidinyl)-Ala]-(2Nal)-N-AllyG(4)-(aMe-P)-F -D-[D-Lys(DOTA)]-NH2] (Ac-SD[AllylGly][1Nal][NMetBuAla][Ala(piperidin-4-yl)][2Nal]N[AllylGly][αMeP]FD[dK](DOTA)-NH2; staple (E) 3-9) | > 30 | 
CC(=O)N[C@@H](CC1CCNCC1)C(=O)N(C)[C@@H](CO)C(=O)N[C@@H](CC(=O)O)C(=O)N[C@H]1C/C=C/C[C@@H](C(=O)N2CCC[C@@]2(C)C(=O)N[C@@H](Cc2ccccc2)C(=O)N[C@@H](CC(=O)O)C(N)=O)NC(=O)[C@H](CC(N)=O)NC(=O)[C@H](Cc2ccc3ccccc3c2)NC(=O)[C@H](Cc2ccc(CNC(=O)CN3CCN(CC(=O)O)CCN(CC(=O)O)CCN(CC(=O)O)CC3)cc2)NC(=O)[C@H](CC(C)(C)C)NC(=O)[C@H](Cc2cccc3ccccc23)NC1=O [compound 190, Ac-[3-(4-piperidinyl)-Ala]-(NMe-Ser)-D-AllyG(4)-(1Nal)-(t-Bu-Ala)-[PAF(DOTA)]-(2Nal)-N-AllyG(4)-(aMe-P)-F-D-CONH2] (Ac-[Ala(piperidin-4-yl)][NMeS]D[AllylGly][1Nal][tBuAla][Phe(4-CH2NH2)](DOTA)[2Nal]N[AllylGly][αMeP]FD-NH2; staple (E) 4-10) | 1.51 | 
CC(=O)N[C@@H](CC1CCNCC1)C(=O)N[C@@H](CO)C(=O)N[C@@](C)(CC(=O)O)C(=O)N[C@H]1C/C=C/C[C@@H](C(=O)N2CCC[C@@]2(C)C(=O)N[C@@H](Cc2ccccc2)C(=O)N[C@@H](CC(=O)O)C(N)=O)NC(=O)[C@H](CC(N)=O)NC(=O)[C@H](Cc2ccc3ccccc3c2)NC(=O)[C@H](Cc2ccc(CNC(=O)CN3CCN(CC(=O)O)CCN(CC(=O)O)CCN(CC(=O)O)CC3)cc2)NC(=O)[C@H](CC(C)(C)C)NC(=O)[C@H](Cc2cccc3ccccc23)NC1=O [compound 194, Ac-[3-(4-piperidinyl)-Ala]-S-(aMe-Asp)-AllyG(4)-(1Nal)-(t-Bu-Ala)-[PAF(DOTA)]-(2Nal)-N-AllyG(4)-(aMe-P)-F-D-CONH2] (Ac-[Ala(piperidin-4-yl)]S[αMeD][AllylGly][1Nal][tBuAla][Phe(4-CH2NH2)](DOTA)[2Nal]N[AllylGly][αMeP]FD-NH2; staple (E) 4-10) | 0.27 | 
C[C@@H](NC(=O)CN1CCN(CC(=O)O)CCN(CC(=O)O)CCN(CC(=O)O)CC1)C(=O)N[C@@H](CO)C(=O)N[C@@](C)(CC(=O)O)C(=O)N[C@H]1C/C=C/C[C@@H](C(=O)N2CCC[C@@]2(C)C(=O)N[C@@H](Cc2ccccc2)C(=O)N[C@@H](CC(=O)O)C(N)=O)NC(=O)[C@H](CC(N)=O)NC(=O)[C@H](Cc2ccc3ccccc3c2)NC(=O)[C@H](CC2CCNCC2)NC(=O)[C@H](CC(C)(C)C)NC(=O)[C@H](Cc2cccc3ccccc23)NC1=O [compound 197, DOTA-(D-Ala)-S-(aMe-Asp)-AllyG(4)-(1Nal)-(t-Bu-Ala)-[3-(4-piperidinyl)-Ala]-(2Nal)-N-AllyG(4)-(aMe-P)-F-D-CONH2] ({DOTA}-[dA]S[αMeD][AllylGly][1Nal][tBuAla][Ala(piperidin-4-yl)][2Nal]N[AllylGly][αMeP]FD-NH2; staple (E) 4-10) | 1.66 | 
CC(=O)N[C@@H](CC1CCNCC1)C(=O)N[C@@H](CO)C(=O)N[C@@H](CC(=O)O)C(=O)N[C@H]1C/C=C\C[C@@H](C(=O)N2CCC[C@@]2(C)C(=O)N[C@@H](Cc2ccccc2)C(=O)N[C@@H](CC(=O)O)C(N)=O)NC(=O)[C@H](CC(N)=O)NC(=O)[C@H](Cc2ccc3ccccc3c2)NC(=O)[C@H](Cc2ccc(CNC(=O)CN3CCN(CC(=O)O)CCN(CC(=O)O)CCN(CC(=O)O)CC3)cc2)NC(=O)[C@H](CC(C)(C)C)NC(=O)[C@H](Cc2cccc3ccccc23)NC1=O [compound 198, Ac-(D-Ala)-S-D-AllyG(4)-(1Nal)-(t-Bu-Ala)-[PAF(DOTA)]-(2Nal)-N-AllyG(4)-(aMe-P)-F-D-CONH2] (Ac-[Ala(piperidin-4-yl)]SD[AllylGly][1Nal][tBuAla][Phe(4-CH2NH2)](DOTA)[2Nal]N[AllylGly][αMeP]FD-NH2; staple (Z) 4-10) |  | heterogenous binding
CC(=O)N[C@@H](CC1CCNCC1)C(=O)N[C@@H](CO)C(=O)N[C@@H](CC(=O)O)C(=O)N[C@H]1C/C=C/C[C@@H](C(=O)N2CCC[C@@]2(C)C(=O)N[C@@H](Cc2ccccc2)C(=O)N[C@@H](CC(=O)O)C(N)=O)NC(=O)[C@H](CC(N)=O)NC(=O)[C@H](Cc2ccc3ccccc3c2)NC(=O)[C@H](Cc2ccc(CNC(=O)CN3CCN(CC(=O)O)CCN(CC(=O)O)CCN(CC(=O)O)CC3)cc2)NC(=O)[C@H](CC(C)(C)C)NC(=O)[C@H](Cc2cccc3ccccc23)NC1=O [compound 199, Ac-(D-Ala)-S-D-AllyG(4)-(1Nal)-(t-Bu-Ala)-[PAF(DOTA)]-(2Nal)-N-AllyG(4)-(aMe-P)-F-D-CONH2] (Ac-[Ala(piperidin-4-yl)]SD[AllylGly][1Nal][tBuAla][Phe(4-CH2NH2)](DOTA)[2Nal]N[AllylGly][αMeP]FD-NH2; staple (E) 4-10) | 0.21 | 
CC(=O)N[C@@H](CC1CCNCC1)C(=O)N[C@@H](CO)C(=O)N[C@@H](CC(=O)O)C(=O)N[C@H]1C/C=C\C[C@@H](C(=O)N2CCC[C@@]2(C)C(=O)N[C@@H](Cc2ccccc2)C(=O)N[C@@H](CC(=O)O)C(N)=O)NC(=O)[C@H](CC(N)=O)NC(=O)[C@H](Cc2ccc3ccccc3c2)NC(=O)[C@H](Cc2ccc(CNC(=O)CN3CCN(CC(=O)O)CCN(CC(=O)O)CCN(CC(=O)O)CC3)cc2)NC(=O)[C@H](CC(C)(C)C)NC(=O)[C@H](Cc2cccc3ccccc23)NC1=O [compound 201, Ac-[3-(4-piperidinyl)-Ala]-S-D-AllyG(4)-(1Nal)-(t-Bu-Ala)-[PAF(DOTA)]-(2Nal)-N-AllyG(4)-(aMe-P)-F-D-CONH2] (Ac-[Ala(piperidin-4-yl)]SD[AllylGly][1Nal][tBuAla][Phe(4-CH2NH2)](DOTA)[2Nal]N[AllylGly][αMeP]FD-NH2; staple (Z) 4-10) | 14.6 | 
CC(=O)N[C@@H](CC1CCNCC1)C(=O)N[C@@H](CO)C(=O)N[C@@H](CC(=O)O)C(=O)N[C@H]1C/C=C/C[C@@H](C(=O)N2CCC[C@@]2(C)C(=O)N[C@@H](Cc2ccccc2)C(=O)N[C@@H](CC(=O)O)C(N)=O)NC(=O)[C@H](CC(N)=O)NC(=O)[C@H](Cc2ccc3ccccc3c2)NC(=O)[C@H](Cc2ccc(CNC(=O)CN3CCN(CC(=O)O)CCN(CC(=O)O)CCN(CC(=O)O)CC3)cc2)NC(=O)[C@H](CC(C)(C)C)NC(=O)[C@H](Cc2cccc3ccccc23)NC1=O [compound 202, Ac-[3-(4-piperidinyl)-Ala]-S-D-AllyG(4)-(1Nal)-(t-Bu-Ala)-[PAF(DOTA)]-(2Nal)-N-AllyG(4)-(aMe-P)-F-D-CONH2] (Ac-[Ala(piperidin-4-yl)]SD[AllylGly][1Nal][tBuAla][Phe(4-CH2NH2)](DOTA)[2Nal]N[AllylGly][αMeP]FD-NH2; staple (E) 4-10) | 0.53 | 
CC(=O)N[C@H](C)C(=O)N[C@@H](CO)C(=O)N[C@@H](CC(=O)O)C(=O)N[C@H]1C/C=C/C[C@@H](C(=O)N2CCC[C@@]2(C)C(=O)N[C@@H](Cc2ccccc2)C(=O)N[C@@H](CC(=O)O)C(N)=O)NC(=O)[C@H](CC(N)=O)NC(=O)[C@H](Cc2ccc3ccccc3c2)NC(=O)[C@H](Cc2ccc(CNC(=O)CN3CCN(CC(=O)O)CCN(CC(=O)O)CCN(CC(=O)O)CC3)cc2)NC(=O)[C@H](CC2CCNCC2)NC(=O)[C@H](Cc2cccc3ccccc23)NC1=O [compound 204, Ac-(D-Ala)-S-D-AllyG(4)-(1Nal)-[3-(4-piperidinyl)-Ala]-[PAF(DOTA)]-(2Nal)-N-AllyG(4)-(aMe-P)-F-D-CONH2] (Ac-[dA]SD[AllylGly][1Nal][Ala(piperidin-4-yl)][Phe(4-CH2NH2)](DOTA)[2Nal]N[AllylGly][αMeP]FD-NH2; staple (E) 4-10) | 1.3 | 
